Here are results for 13 molecules from US20160169918A1, “Methods of Diagnosis and Treatment for Pulmonary Arterial Hypertension” (THE REGENTS OF THE UNIVERSITY OF CALIFORNIA, priority 2013, published 2016).

Data set [1] deals with Adult Sprague-Dawley rats. Kind of data set: monocrotaline-treated rat model, right ventricular hypertrophy (Fulton Index). The conditions noted are these: MCT 60 mg/kg once intraperitoneally, 2 weeks, control rats 0.20. The protocol: Adult Sprague-Dawley rats (250-300 g, male) were injected once intraperitoneally with MCT (60 mg/kg) and sacrificed 2 weeks later. Right ventricular hypertrophy was assessed to determine the development of PAH. It was evaluated as the ratio of the weight of the right ventricle to that of the left ventricle plus the septum (Fulton Index). […] This model is commonly used and approved as a valid model of PAH.^42,43 All animals were cared for in compliance with the guiding principles and approved by the UCSD Institutional Animal Care and Use Committee.

A further data set deals with Ctrl-PASMCs. The data set can be described thus: [3H]thymidine incorporation (DNA synthesis, proliferation) of PASMCs with GPCR agonists. The data set is classed as cell-based, human. The protocol:
GPCR agonists/antagonists/GPR75 antibody in the absence or presence of 200 μM IBMX and [^3H] thymidine (1 μCi/ml) were added to the cells for 24-48 hr. Following incubation, cells were washed with a large volume of cold phosphate buffer saline (PBS) and then twice with a large volume of cold 7.5% TCA. The precipitated material was dissolved with 0.5 M NaOH and combined with 3 mL of scintillation fluid (Ecoscint O, National Diagnostics) and radioactivity was determined using a liquid scintillation counter (Beckman Coulter LS 1801).

The target of a further data set is T1, oxytocin receptor (Homo sapiens, UniProt P30559).
T1 construct: the oxytocin receptor is expressed on the membrane of Ctrl-PASMCs; endogenous in cells; host or cells: Ctrl-PASMCs (primary human pulmonary artery smooth muscle cells)
T1 sequence (P30559 1-389): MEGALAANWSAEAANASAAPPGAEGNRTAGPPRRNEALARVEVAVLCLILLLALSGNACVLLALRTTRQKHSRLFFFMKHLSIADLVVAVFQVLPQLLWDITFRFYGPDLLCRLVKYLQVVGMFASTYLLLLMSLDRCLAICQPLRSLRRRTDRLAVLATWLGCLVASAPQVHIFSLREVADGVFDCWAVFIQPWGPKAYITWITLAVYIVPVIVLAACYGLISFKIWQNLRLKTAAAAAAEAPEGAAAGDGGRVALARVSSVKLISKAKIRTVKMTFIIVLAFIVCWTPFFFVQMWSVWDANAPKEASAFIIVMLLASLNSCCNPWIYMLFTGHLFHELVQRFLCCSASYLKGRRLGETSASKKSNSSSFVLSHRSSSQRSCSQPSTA
The data set can be described thus: forskolin-stimulated cAMP levels in Ctrl-PASMCs with oxytocin. The class given is cell-based. The conditions noted are these: 0.1 nM-10 μM, 10 min, FIG. 4D.

For data set [2] the following is noted: oxytocin 0.2 units/kg; cited from earlier work.
The target in data set [3] is prostaglandin E2 receptor (EP2R) (Homo sapiens, UniProt P43116). The data set can be described thus: cAMP accumulation in response to receptor agonist (cAMP radioimmunoassay) in Ctrl-PASMCs. The settings on record: agonist 1 μM, 10 min treatment.
Chain of prostaglandin E2 receptor (EP2R) (P43116 whole entry): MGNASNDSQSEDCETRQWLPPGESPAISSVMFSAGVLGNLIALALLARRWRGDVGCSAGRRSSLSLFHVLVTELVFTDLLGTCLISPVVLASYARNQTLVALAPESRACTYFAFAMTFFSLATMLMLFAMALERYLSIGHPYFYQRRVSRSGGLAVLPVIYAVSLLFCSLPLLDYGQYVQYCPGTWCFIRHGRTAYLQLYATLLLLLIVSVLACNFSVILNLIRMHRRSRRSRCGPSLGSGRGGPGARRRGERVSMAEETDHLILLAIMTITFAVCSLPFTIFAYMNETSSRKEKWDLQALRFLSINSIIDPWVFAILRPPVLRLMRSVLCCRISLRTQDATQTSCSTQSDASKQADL
Description: (§1) Control-PASMCs, PAH-PASMCs or HEK 293 cells were seeded at 30,000 cells/well in a 24-well plate. […] 10 uM FSK (alone) was used as a positive control. After the incubations, the media was aspirated and 150 μL of 7.5% trichloroacetic acid (TCA) was added to each well.
(§2) Assay tubes were filled with 1 mL of 10 mM sodium acetate buffer (pH 4.75) and a standard curve was constructed by serial dilution of stock 5 μM cAMP (Millipore, Billerica, Mass.). An appropriate amount of sample was added to the assay tubes and the samples were acetylated by addition of 20 μL triethylamine (Sigma) and 10 μl acetic anhydride (Sigma). 100 μL of the sodium acetate buffer was added to each well of a 96-well filter plate to prepare the plate and then was removed by vacuum. 50 μL of diluted, acetylated sample was added to each well along with 25 μL diluted antibody [1:1000, 6 μL primary cAMP antibody (Millipore) in 6 mL γ-globulin buffer (100 mg human γ-globulin/100 mL 50 mM NaAc pH 4.75)] and 25 μL diluted ^125I radioactivity [16 acetylated adenosine 3′,5′-cyclic phosphoric acid, 2′-O-succinyl [^125I]-iodotyrosine methyl ester (PerkinElmer) in 3 mL γ-globulin buffer so that 0.001 mCi of ^125I could be added to each sample. The 96-well filter plate containing the sample was incubated overnight at 4° C. […]
A further data set concerns smooth muscle cell. The conditions noted are these: after serum stimulation; cited from earlier work.
The target of data set [4] is T2, adenosine 2B receptor (A2BR) (Homo sapiens, UniProt P29275).
T2 sequence (P29275 1-332): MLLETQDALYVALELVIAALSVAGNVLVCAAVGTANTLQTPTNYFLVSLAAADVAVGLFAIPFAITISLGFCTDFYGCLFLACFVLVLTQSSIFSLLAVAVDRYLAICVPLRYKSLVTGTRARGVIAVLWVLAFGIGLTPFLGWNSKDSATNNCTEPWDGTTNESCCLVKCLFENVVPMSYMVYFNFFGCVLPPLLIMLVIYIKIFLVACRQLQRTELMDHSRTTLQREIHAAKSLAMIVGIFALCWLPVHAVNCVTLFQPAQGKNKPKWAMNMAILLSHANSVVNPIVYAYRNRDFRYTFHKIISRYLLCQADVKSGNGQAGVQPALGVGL
Kind of data set: cAMP accumulation in response to receptor agonist (cAMP radioimmunoassay) in Ctrl-PASMCs. The class given is cell-based. The conditions noted are these: agonist 1 μM, 10 min treatment.
Description: as §1, §2

The target in data set [5] is gastric inhibitory polypeptide receptor (human) (UniProt P48546). The data set can be described thus: cell-based or functional assay.
Another data set deals with GPR75. The settings on record: cited from earlier work.
In data set [6] the target is T3, gastric inhibitory polypeptide receptor (GIPR) (Homo sapiens, UniProt P48546).
T3 sequence (P48546 22-466): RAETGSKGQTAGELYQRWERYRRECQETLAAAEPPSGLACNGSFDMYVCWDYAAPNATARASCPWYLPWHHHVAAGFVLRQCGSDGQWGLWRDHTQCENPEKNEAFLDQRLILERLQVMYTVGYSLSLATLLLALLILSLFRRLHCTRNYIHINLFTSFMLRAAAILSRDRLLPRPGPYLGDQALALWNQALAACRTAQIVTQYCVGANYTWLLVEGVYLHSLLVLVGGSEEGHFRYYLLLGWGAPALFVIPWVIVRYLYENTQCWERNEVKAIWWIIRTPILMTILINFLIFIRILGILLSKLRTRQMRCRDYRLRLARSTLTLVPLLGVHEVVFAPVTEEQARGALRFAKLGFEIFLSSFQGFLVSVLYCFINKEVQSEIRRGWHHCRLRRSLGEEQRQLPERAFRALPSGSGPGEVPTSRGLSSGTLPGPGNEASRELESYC
Kind of data set: cAMP accumulation in response to receptor agonist (cAMP radioimmunoassay) in Ctrl-PASMCs. The conditions noted are these: agonist 1 μM, 10 min treatment.
Description: as §1, §2

The next data set concerns human PASMCs. The settings on record: cited from earlier work.
For data set [7], the target named is prostacyclin receptor (IPR) (Homo sapiens, UniProt P43119). The data set can be described thus: cAMP accumulation in response to receptor agonist (cAMP radioimmunoassay) in Ctrl-PASMCs. The data set is classed as cell-based. The conditions noted are these: agonist 10 μM, 10 min treatment.
Chain of prostacyclin receptor (IPR) (P43119 whole entry): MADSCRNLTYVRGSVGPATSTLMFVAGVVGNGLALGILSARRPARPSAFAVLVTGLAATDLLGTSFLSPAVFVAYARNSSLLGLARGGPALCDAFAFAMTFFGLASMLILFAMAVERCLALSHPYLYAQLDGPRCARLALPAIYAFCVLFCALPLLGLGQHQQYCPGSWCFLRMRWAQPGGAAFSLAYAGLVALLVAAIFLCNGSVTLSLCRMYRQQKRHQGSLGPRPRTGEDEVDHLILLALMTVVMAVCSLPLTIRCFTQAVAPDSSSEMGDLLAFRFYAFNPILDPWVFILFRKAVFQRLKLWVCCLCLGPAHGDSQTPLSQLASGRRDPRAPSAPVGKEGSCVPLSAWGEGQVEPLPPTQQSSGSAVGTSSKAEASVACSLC
Description: as §1, §2
Data set [8] addresses vasoactive intestinal peptide receptor 1 (human) (UniProt P32241). Kind of data set: cell-based or functional assay.
In another data set the test system is PAH-patients. The conditions noted are these: chronic inhalation; n=8 PAH-patients; cited from earlier work.
Where [9] appears, read: HEK293 cells overexpressing GPR75.

Chain of vasoactive intestinal peptide receptor 1 (human) (P32241 31-457): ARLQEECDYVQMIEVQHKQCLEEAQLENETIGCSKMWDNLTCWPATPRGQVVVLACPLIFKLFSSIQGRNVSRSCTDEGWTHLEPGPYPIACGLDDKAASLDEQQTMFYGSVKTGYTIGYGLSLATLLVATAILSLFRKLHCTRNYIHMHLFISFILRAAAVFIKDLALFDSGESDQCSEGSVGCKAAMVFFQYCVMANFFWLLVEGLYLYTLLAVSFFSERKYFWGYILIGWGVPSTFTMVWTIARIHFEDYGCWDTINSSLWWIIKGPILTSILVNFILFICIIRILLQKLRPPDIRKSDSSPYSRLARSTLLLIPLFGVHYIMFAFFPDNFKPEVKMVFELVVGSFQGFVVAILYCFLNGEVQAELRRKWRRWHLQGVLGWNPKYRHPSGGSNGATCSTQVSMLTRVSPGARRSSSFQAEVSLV
Description for oxytocin receptor: as §1, §2

Turning to `C[C@H]1C(=O)O[C@@H]2CCN3CC=C(COC(=O)[C@](C)(O)[C@]1(C)O)[C@H]23` [MCT, Monocrotaline], the “Fulton Index (weight of right ventricle / left ventricle plus septum)” value in data set [1] was determined as 0.34.

Turning to `CC[C@H](C)[C@@H]1NC(=O)[C@H](Cc2ccc(O)cc2)NC(=O)[C@@H](N)CSSC[C@@H](C(=O)N2CCC[C@H]2C(=O)N[C@@H](CC(C)C)C(=O)NCC(N)=O)NC(=O)[C@H](CC(N)=O)NC(=O)[C@H](CCC(N)=O)NC1=O` [oxytocin], the PASMC proliferation entry in the data set on Ctrl-PASMCs (0.1 nM-10 μM, cells in serum free media over 24 hr, FIG. 4D) is listed as “promoted PASMC proliferation”. In addition, the “cAMP accumulation (forskolin-stimulated)” value on oxytocin receptor was “decreased cAMP accumulation”. In data set [2], the “mean PAP” value was “increases” and the “pulmonary vascular resistance (PVR)” value is recorded as “increases”.

With `CCCC1([C@H](O)C/C=C/[C@H]2[C@H](O)CC(=O)[C@@H]2CCCCCCC(=O)OC)CCC1` [butaprost], the cAMP accumulation in data set [3] is given as 0.4 fmol cAMP/cell/10 min.

For the molecule `Nc1ncnc2c1nc(Br)n2[C@@H]1O[C@@H]2COP(=O)(O)O[C@H]2[C@H]1O` [8Br-cAMP], in the data set with smooth muscle cell, the “percentage of cells in the S phase of the cell cycle” value is “reduced”.

Consider `Nc1nc(Nc2ccccc2)nc2c1ncn2[C@@H]1O[C@H](CO)[C@@H](O)[C@H]1O` [CV1808], for which the cAMP accumulation in data set [4] was found to be 0.6 fmol cAMP/cell/10 min.

Take “GIP (from UniProt P09681 52-93) (peptide)”: the cAMP accumulation (fmol cAMP/cell/10 min treatment with agonist) in Ctrl-PASMCs at 1 µM GIP (fmol cAMP/cell/10 min) in data set [5] worked out at 0.2.

On to `COc1ccc2c(c1)CC[C@@H]1[C@@H]2CC[C@]2(C)[C@@H](NCCCCCCN3C(=O)C=CC3=O)CC[C@@H]12` [U73122], for which the “RANTES-mediated increase in Ca2+ mobilization” value in the data set with GPR75 (GPR75-HEK293 cells, PLC inhibitor) is listed as “block”.

Turning to “GIP: receptor agonist used for the gastric inhibitory polypeptide receptor (GIPR)”, in [6], the cAMP accumulation amounted to 0.2 fmol cAMP/cell/10 min.

In the case of Neuropeptide Y, the “proliferation of human PASMCs” value in the data set on human PASMCs was “stimulates proliferation”.

In turn, `CCCCC[C@H](O)/C=C/[C@@H]1[C@H]2C/C(=C/CCCC(=O)O)O[C@H]2C[C@H]1O` [epoprostenol] showed a cAMP accumulation in data set [7] of 0.4 fmol cAMP/cell/10 min.

In the case of “vasoactive intestinal peptide (from UniProt P01282 125-152)”, in data set [8], the cAMP accumulation (fmol cAMP/cell/10 min treatment with agonist) in Ctrl-PASMCs at 1 µM VIP (fmol cAMP/cell/10 min) turned out to be 0.2 and the decrease in proliferation of PASMCs (0.1 nM-10 µM VIP) amounted to 50%.

For Vasoactive Intestinal Peptide [VIP], the “decrease of PASMC proliferation” value in the data set on Ctrl-PASMCs (0.1 nM-10 μM VIP, FIG. 4C) is “roughly 50%”. Further, in the data set on PAH-patients, the exercise capacity entry is on record as “improve” and the hemodynamics entry is on record as “improve”.

B1: RANTES: Regulated upon Activation, Normal T-cell Expressed, and Secreted chemokine; proposed ligand for GPR75 (protein, UniProt P13501 24-91, looked up)
C-C motif chemokine 5: SPYSSDTTPCCFAYIARPLPRAHIKEYFYTSGKCSNPAVVFVTRKNRQVCANPEKKWVREYINSLEMS
Take B1: in the data set on GPR75 (setting [9]), the “Ca2+ mobilization” value is given as “stimulation” and the “inositol triphosphate (IP3)” value is reported as “increase”.
